Source: US12605380B2, “Methods of improving lung function” (Endeavor BioMedicines, Inc., priority 2024, dated 2026)

Tests used:
Type in all cases: in vivo, human
[1] = test system: subjects with Idiopathic Pulmonary Fibrosis (IPF); experiment: Phase 2a study in IPF subjects: patient reported outcome, UCSD Shortness of Breath Questionnaire (SOBQ); details: 200 mg once a day, vs placebo, not statistically significant
Experimental: Study Design. Eligible subjects with mild to moderate IPF were randomized to receive placebo or ENV-101 as a daily oral dose for 12 consecutive weeks of treatment. […] Subjects participated in a Screening Visit, a Day 1 randomization visit, a telephone visit at Week 1, visits at Week 6 and Week 12 during the treatment period and a follow-up visit at Week 18. All subjects were randomized to receive either placebo or 200 mg of taladegib (ENV-101). During the treatment period, if a subject experienced an adverse event that is related to the study medication, the dose of the study drug was permitted to be modified based on the type of adverse event observed and after consultation with the Sponsor and Medical Monitor. A study subject was considered to have completed the study if he or she completed all study visits including the last visit or the last scheduled procedure shown in the Schedule of Activities (SoA). [table] The dosing regimen evaluated in this study was ENV-101 or placebo administered daily. The dose of ENV-101 studied was 200 mg. Subjects randomized to ENV-101 took two 100 mg tablets daily for the 200 mg dose, while subjects randomized to placebo took two placebo tablets daily. Subjects took both tablets at the same time, and it was recommended that subjects take the dose at the same time each day, ideally in the morning prior to eating. […]

[2] = test system: subjects with Idiopathic Pulmonary Fibrosis (IPF); experiment: Phase 2a study in IPF subjects: quantitative HRCT measurements (TLC, % QILD, % QLF, % QGG)
Experimental: Study Design. Eligible subjects with mild to moderate IPF were randomized to receive placebo or ENV-101 as a daily oral dose for 12 consecutive weeks of treatment. […] Subjects participated in a Screening Visit, a Day 1 randomization visit, a telephone visit at Week 1, visits at Week 6 and Week 12 during the treatment period and a follow-up visit at Week 18. All subjects were randomized to receive either placebo or 200 mg of taladegib (ENV-101). During the treatment period, if a subject experienced an adverse event that is related to the study medication, the dose of the study drug was permitted to be modified based on the type of adverse event observed and after consultation with the Sponsor and Medical Monitor. A study subject was considered to have completed the study if he or she completed all study visits including the last visit or the last scheduled procedure shown in the Schedule of Activities (SoA). [table] The dosing regimen evaluated in this study was ENV-101 or placebo administered daily. The dose of ENV-101 studied was 200 mg. Subjects randomized to ENV-101 took two 100 mg tablets daily for the 200 mg dose, while subjects randomized to placebo took two placebo tablets daily. Subjects took both tablets at the same time, and it was recommended that subjects take the dose at the same time each day, ideally in the morning prior to eating. If a subject experienced nausea or other gastrointestinal symptoms, it was recommended that the subject take the dose with a low-fat meal or prior to bedtime.

[3] = test system: subjects with Idiopathic Pulmonary Fibrosis (IPF); experiment: Post-hoc analysis of HRCT images with Qureight deep learning models (Lung8, Vascul8, Fibr8)
Text: A post-hoc analysis utilizing deep learning models developed by Qureight (using machine learning methodologies such as 3D convolutional neural networks), were employed to quantify lung volume (Lung8), vessel volume (Vascul8), fibrosis extent (Fibr8) and airway volume (Air8) from High Resolution Computed Tomography images. Deep learning-based CT biomarkers provide an alternate, non-invasive way to predict disease progression and/or assess treatment effects in antifibrotic clinical trials. 34 patients with baseline and week 12 HRCTs were available for model analysis. Of the 34 patients, 18 patients received placebo, and 16 received ENV-101. Group comparisons were performed with an independent t-test, and linear regression assessed variable relationships. Effect sizes were calculated using Hedges' G to account for sample size bias. A p-value<0.05 was considered significant.

[4] = test system: subjects with Idiopathic Pulmonary Fibrosis (IPF); experiment: Phase 2a study in IPF subjects: lung function by forced vital capacity (FVC, ppFVC)
Experimental: Study Design. Eligible subjects with mild to moderate IPF were randomized to receive placebo or ENV-101 as a daily oral dose for 12 consecutive weeks of treatment. […] Subjects participated in a Screening Visit, a Day 1 randomization visit, a telephone visit at Week 1, visits at Week 6 and Week 12 during the treatment period and a follow-up visit at Week 18. All subjects were randomized to receive either placebo or 200 mg of taladegib (ENV-101). During the treatment period, if a subject experienced an adverse event that is related to the study medication, the dose of the study drug was permitted to be modified based on the type of adverse event observed and after consultation with the Sponsor and Medical Monitor. A study subject was considered to have completed the study if he or she completed all study visits including the last visit or the last scheduled procedure shown in the Schedule of Activities (SoA). • 1. Males and females greater than 40 years of age. • 2. Idiopathic Pulmonary Fibrosis diagnosis based upon […], Japanese Respiratory Society, European Respiratory Society, Latin […] guidelines within the last 7 years. Diagnosis will be confirmed to be consistent with IPF by centrally read high resolution computed tomography (HRCT) obtained at the Screening Visit or previous HRCT scan performed within 30 days of the Screening Visit may be used. • 3. Ability to successfully perform lung function tests. • 4. Percent predicted forced vital capacity (FVC) of >50% at the Screening Visit. • 5. […] Evidence of other known causes of interstitial lung disease (ILD) (e.g., domestic and occupational environmental exposures, connective-tissue disease [CTD], and drug toxicity), lung transplant expected within 12 months of screening or evidence of clinically significant lung disease other than IPF including but not limited to asthma, chronic obstructive pulmonary disease (COPD), uncontrolled pulmonary hypertension and emphysema where computed tomography (CT)-assessed extent of emphysema is greater than extent of fibrosis. • 2. […]

[5] = week 12, ENV-101 vs placebo, Hedges' G

CN(C(=O)c1ccc(F)cc1C(F)(F)F)C1CCN(c2nnc(-c3ccnn3C)c3ccccc23)CC1 [taladegib]
mean change from baseline of responses to the UCSD Shortness of Breath Questionnaire (SOBQ) [1]: improvement
change from baseline in percent quantitative ground glass opacity (% QGG) ([2]; 200 mg once a day for 12 weeks): about −4.6%
change from baseline in percent quantitative interstitial lung disease (% QILD) ([2]; 200 mg once a day for 12 weeks): about −9%
change from baseline in percent quantitative lung fibrosis (% QLF) ([2]; 200 mg once a day for 12 weeks): about −2%
increase in total lung capacity (TLC) ([2]; 200 mg once a day for 12 weeks, p=0.005): about 200 mL
increase in total lung capacity (TLC), percent ([2]; 200 mg once a day, over the three month treatment period): about 8%
fibrosis (conclusion in words) ([3]; treated over 12 weeks): reduced
lung volume (conclusion in words) ([3]; treated over 12 weeks): significantly improved
pulmonary vascular volume (conclusion in words) ([3]; treated over 12 weeks): significantly reduced
Change in Pulmonary vascular volume (normalised to lung volume) ([3]; week 12, 16 patients on ENV-101, p=0.0007 vs placebo): −0.25%
Lung volume change (total lung volume, Lung8) ([3]; week 12, 16 patients on ENV-101, p=0.014 vs placebo): 142.28 mL
Change in Fibrosis (extent, normalised to lung volume) ([3]; week 12, 16 patients on ENV-101, p=0.063 vs placebo): −1.32%
effect size, change in pulmonary vascular volume [3, 5]: −1.28
effect size, lung volume change [3, 5]: 0.87
mean change from baseline of percent predicted forced vital capacity (ppFVC) ([4]; IPF subjects, 200 mg QD, at 6 weeks (n=16)): 1.7%
effect size, % predicted FVC ([4]; post-hoc analysis, ENV-101 vs placebo, Hedges' G): 0.78
% predicted FVC compared to placebo ([4]; post-hoc analysis, patients with baseline and week 12 HRCT, p=0.03): significant improvement
